From patent US12257247B2 (Monte Rosa Therapeutics AG, priority 2023, dated 2025)
Like-named read-outs stand apart in the source and are kept apart here.

Target: T1, VAV1 (Homo sapiens, UniProt P15498+Q96SW2)
T1 construct: A heterozygous VAV1 C-terminal HiBiT knock-in pool was generated at Monte Rosa Therapeutics from a clonal Jurkat cell; endogenous in cells; host or cells: Jurkat clone stably expressing LgBiT, homozygous GSPT1-G575N; heterozygous VAV1-HiBiT knock-in pool
Assay: VAV1 degradation activity, VAV1-HiBiT knock-in Jurkat luminescence assay (Example A, Table 1)
Format: cell-based
Settings: VAV1-HiBiT knock-in Jurkat cells, luminescence read at 6 and 24 hours; for Dmax: Jurkat
Procedure, shortened: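 Luminescence was measured at 6 and 24 h after adding compound (10 μM stock) to VAV1-HiBiT knock-in Jurkat cells, which had been pre-incubated ~16 h at 37° C. in RPMI/10% FBS containing Endurazine. EC50 values came from control-normalised responses fitted to a 3-parameter logistic model with hillslope fixed at 1.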

[1] = read-out: VAV1 DC50 (nM), class

Dmax (read-out: VAV1 Dmax %) [%] | Dmax (read-out: VAV1 Dmax %, class) [%] | DC50 (read-out: VAV1 DC50) [nM] | DC50 [1] [nM] | SMILES
54.6 | < 60 | 4840 | > 1000 | O=C1CCC(c2cccc(-c3ccc(C4COC4)cc3)c2Cl)C(=O)N1 (stereo not drawn) [Compound 198, 3-(2-chloro-4′-(oxetan-3-yl)-[1,1′-biphenyl]-3-yl)piperidine-2,6-dione]
66.8 | 60 to 90 | 1280 | > 1000 | Cc1cc(-c2cccc(C3CCC(=O)NC3=O)c2Cl)ccc1-n1ccccc1=O (stereo not drawn) [Compound 199, 3-(2-chloro-3′-methyl-4′-(2-oxopyridin-1(2H)-yl)-[1,1′-biphenyl]-3-yl)piperidine-2,6-dione]
97 | > 90 | 5.14 | ≤ 100 | CC1CCCC(=O)N1c1ccc(-c2cccc(C3CCC(=O)NC3=O)c2Cl)cc1 (stereo not drawn) [Compound 200, 3-(2-chloro-4′-(2-methyl-6-oxopiperidin-1-yl)-[1,1′-biphenyl]-3-yl)piperidine-2,6-dione]
88.7 | 60 to 90 | 203 | 100 to 1000 | O=C1CC[C@H](c2cccc(-c3ccc(Cn4ccccc4=O)cc3)c2Cl)C(=O)N1 [Compound 201, (R)-3-(2-chloro-4′-((2-oxopyridin-1(2H)-yl)methyl)-[1,1′-biphenyl]-3-yl)piperidine-2,6-dione]
94.6 | > 90 | 14.6 | ≤ 100 | O=C1CC[C@@H](c2cccc(-c3ccc(Cn4ccccc4=O)cc3)c2Cl)C(=O)N1 [Compound 202, (S)-3-(2-chloro-4′-((2-oxopyridin-1(2H)-yl)methyl)-[1,1′-biphenyl]-3-yl)piperidine-2,6-dione]
94.6 | > 90 | 29.3 | ≤ 100 | O=C1CCC(c2cccc(-c3ccc(OCc4cc[nH]n4)cc3)c2Cl)C(=O)N1 (stereo not drawn) [Compound 203, 3-(4′-((1H-pyrazol-3-yl)methoxy)-2-chloro-[1,1′-biphenyl]-3-yl)piperidine-2,6-dione]
95.8 | > 90 | 12.2 | ≤ 100 | O=C1CCC(c2cccc(-c3ccc(N4CCCOC4=O)cc3)c2Cl)C(=O)N1 (stereo not drawn) [Compound 204, 3-(2-chloro-4′-(2-oxo-1,3-oxazinan-3-yl)-[1,1′-biphenyl]-3-yl)piperidine-2,6-dione]
90.4 | > 90 | 16.4 | ≤ 100 | O=C1CCC(c2cccc(-c3ccc(N4C(=O)CCCC4=O)cc3)c2Cl)C(=O)N1 (stereo not drawn) [Compound 205, 1-(2′-chloro-3′-(2,6-dioxopiperidin-3-yl)-[1,1′-biphenyl]-4-yl)piperidine-2,6-dione]
87.5 | 60 to 90 | 42.7 | ≤ 100 | O=C1CCC(c2cccc(-c3ccc(CN4CCCC4=O)cc3)c2Cl)C(=O)N1 (stereo not drawn) [Compound 206, 3-(2-chloro-4′-((2-oxopyrrolidin-1-yl)methyl)-[1,1′-biphenyl]-3-yl)piperidine-2,6-dione]
88.7 | 60 to 90 | 34.7 | ≤ 100 | Cn1ccc(C(=O)Nc2ccc(-c3cccc(C4CCC(=O)NC4=O)c3Cl)cc2)n1 (stereo not drawn) [Compound 207, N-[4-[2-chloro-3-(2,6-dioxo-3-piperidyl)phenyl]phenyl]-1-methyl-pyrazole-3-carboxamide]
97.2 | > 90 | 4.54 | ≤ 100 | O=C1CCC(c2cccc(-c3ccc(Cc4ncccn4)cc3)c2Cl)C(=O)N1 (stereo not drawn) [Compound 208]
93.3 | > 90 | 7.35 | ≤ 100 | Cn1ccc(COc2ccc(-c3cccc([C@@H]4CCC(=O)NC4=O)c3Cl)cc2)n1 [Compound 209, (S)-3-(2-chloro-4′-((1-methyl-1H-pyrazol-3-yl)methoxy)-[1,1′-biphenyl]-3-yl)piperidine-2,6-dione]
96.9 | > 90 | 40.9 | ≤ 100 | O=C1CC[C@H](c2cccc(-c3ccc(-n4ccccc4=O)cc3)c2Cl)C(=O)N1 [Compound 210, (R)-3-(2-chloro-4′-(2-oxopyridin-1(2H)-yl)-[1,1′-biphenyl]-3-yl)piperidine-2,6-dione]
97.9 | > 90 | 3.07 | ≤ 100 | O=C1CC[C@@H](c2cccc(-c3ccc(-n4ccccc4=O)cc3)c2Cl)C(=O)N1 [Compound 211, (S)-3-(2-chloro-4′-(2-oxopyridin-1(2H)-yl)-[1,1′-biphenyl]-3-yl)piperidine-2,6-dione]
47.3 | < 60 | 7990 | > 1000 | O=C1CCC(c2cccc(-c3ccc(N4CCOC4=O)cc3)c2Cl)C(=O)N1 (stereo not drawn) [Compound 212, 3-(2-chloro-4′-(2-oxooxazolidin-3-yl)-[1,1′-biphenyl]-3-yl)piperidine-2,6-dione]
92 | > 90 | 101 | 100 to 1000 | Cn1ccc(COc2ccc(-c3cccc([C@H]4CCC(=O)NC4=O)c3Cl)cc2)n1 [Compound 213, (R)-3-(2-chloro-4′-((1-methyl-1H-pyrazol-3-yl)methoxy)-[1,1′-biphenyl]-3-yl)piperidine-2,6-dione]
97.5 | > 90 | 3.61 | ≤ 100 | Cc1cccc(=O)n1-c1ccc(-c2cccc(C3CCC(=O)NC3=O)c2Cl)cc1 (stereo not drawn) [Compound 214, 3-(2-chloro-4′-(6-methyl-2-oxopyridin-1(2H)-yl)-[1,1′-biphenyl]-3-yl)piperidine-2,6-dione]
96.8 | > 90 | 14.1 | ≤ 100 | O=C1CCC(c2cccc(-c3ccc(Nc4ccccn4)cc3)c2Cl)C(=O)N1 (stereo not drawn) [Compound 215, 3-(2-chloro-4′-(pyridin-2-ylamino)-[1,1′-biphenyl]-3-yl)piperidine-2,6-dione]
86.6 | 60 to 90 | 49 | ≤ 100 | C[C@H]1COC(=O)N1c1ccc(-c2cccc(C3CCC(=O)NC3=O)c2Cl)cc1 (stereo partly drawn) [Compound 216, 3-(2-chloro-4′-((S)-4-methyl-2-oxooxazolidin-3-yl)-[1,1′-biphenyl]-3-yl)piperidine-2,6-dione]
84.6 | 60 to 90 | 43 | ≤ 100 | C[C@@H]1COC(=O)N1c1ccc(-c2cccc(C3CCC(=O)NC3=O)c2Cl)cc1 (stereo partly drawn) [Compound 217, 3-(2-chloro-4′-((R)-4-methyl-2-oxooxazolidin-3-yl)-[1,1′-biphenyl]-3-yl)piperidine-2,6-dione]
96 | > 90 | 9.71 | ≤ 100 | O=C1CCC(c2cccc(-c3ccc(-n4cccc(F)c4=O)cc3)c2Cl)C(=O)N1 (stereo not drawn) [Compound 218]
81.2 | 60 to 90 | 105 | 100 to 1000 | O=C1CCC(c2cccc(-c3ccc(CN4CCOC4=O)cc3)c2Cl)C(=O)N1 (stereo not drawn) [Compound 219]
77.2 | 60 to 90 | 104 | 100 to 1000 | O=C1CCC(c2cccc(-c3ccc(N4CCCCS4(=O)=O)cc3)c2Cl)C(=O)N1 (stereo not drawn) [Compound 220]
77.4 | 60 to 90 | 211 | 100 to 1000 | O=C1CCC(c2cccc(-c3ccc(C(=O)N4CCC(F)(F)C4)cc3)c2Cl)C(=O)N1 (stereo not drawn) [Compound 221, 3-(2-chloro-4′-(3,3-difluoropyrrolidine-1-carbonyl)-[1,1′-biphenyl]-3-yl)piperidine-2,6-dione]
91 | > 90 | 127 | 100 to 1000 | O=C1CCC(c2cccc(-c3ccc(C(=O)n4cccc4)cc3)c2Cl)C(=O)N1 (stereo not drawn) [Compound 222, 3-(2-chloro-4′-(1H-pyrrole-1-carbonyl)-[1,1′-biphenyl]-3-yl)piperidine-2,6-dione]
96.6 | > 90 | 10.7 | ≤ 100 | O=C1CCC(c2cccc(-c3ccc(C(=O)N4CCCCC4)cc3)c2Cl)C(=O)N1 (stereo not drawn) [Compound 223, 3-(2-chloro-4′-(piperidine-1-carbonyl)-[1,1′-biphenyl]-3-yl)piperidine-2,6-dione]
51.5 | < 60 | 7800 | > 1000 | O=C1CCC(c2cccc(-c3ccc(C(=O)Nc4ccno4)cc3)c2Cl)C(=O)N1 (stereo not drawn) [Compound 224, 2′-chloro-3′-(2,6-dioxopiperidin-3-yl)-N-(isoxazol-5-yl)-[1,1′-biphenyl]-4-carboxamide]
93.7 | > 90 | 14.4 | ≤ 100 | Cn1cccc(-c2ccc(-c3cccc(C4CCC(=O)NC4=O)c3Cl)cc2)c1=O (stereo not drawn) [Compound 225, 3-(2-chloro-4′-(1-methyl-2-oxo-1,2-dihydropyridin-3-yl)-[1,1′-biphenyl]-3-yl)piperidine-2,6-dione]
96.8 | > 90 | 9.8 | ≤ 100 | O=C1CCC(c2cccc(-c3ccc(-n4cccc(C(F)(F)F)c4=O)cc3)c2Cl)C(=O)N1 (stereo not drawn) [Compound 226, 3-(2-chloro-4′-(2-oxo-3-(trifluoromethyl)pyridin-1(2H)-yl)-[1,1′-biphenyl]-3-yl)piperidine-2,6-dione]
77.4 | 60 to 90 | 81.8 | ≤ 100 | O=C1CCC(c2cccc(-c3ccc(NC(=O)C4CCOC4)cc3)c2Cl)C(=O)N1 (stereo not drawn) [Compound 227, N-[4-[2-chloro-3-(2,6-dioxo-3-piperidyl)phenyl]phenyl]tetrahydrofuran-3-carboxamide]
